Where two headings read alike, the source gives them in different places.

In data set [1] the target is CYP3A4 (CYP3A) (Homo sapiens, UniProt P08684). In words: in vitro. Conditions: microsomes, pH 7.4.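 Further: inhibition of CYP3A-mediated 1-hydroxymidazolam formation after 10 min incubation with NADPH, quantified by HPLC MS relative to metabolite produced without test compound.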
A short description of data set [2]: Microsomal stability assay, rat liver microsomes.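 Further: rat liver microsomes (0.25 mg/mL) with about 1 µM compound plus 1 mM NADPH, pH 7.4, 37 °C for 30 min, parent left measured by LC-MS/MS against 0 min.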 In general terms: Microsomes from liver hold many membrane-bound enzymes, among them those of drug oxidation.
Data set [3] is described as follows: Microsomal stability assay, human liver microsomes.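 Further: pooled human liver microsomes at 0.25 mg/mL with 1 µM compound and NADPH at 37 °C, pH 7.4, for 30 min, unchanged parent quantified by LC-MS/MS against the 0 min sample.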
The target in data set [4] is CYP2D6 (Homo sapiens, UniProt P10635). As to the kind of experiment: CYP2D6 inhibition assay (bufuralol, pooled human liver microsomes).
Chain of CYP2D6 (P10635 whole entry): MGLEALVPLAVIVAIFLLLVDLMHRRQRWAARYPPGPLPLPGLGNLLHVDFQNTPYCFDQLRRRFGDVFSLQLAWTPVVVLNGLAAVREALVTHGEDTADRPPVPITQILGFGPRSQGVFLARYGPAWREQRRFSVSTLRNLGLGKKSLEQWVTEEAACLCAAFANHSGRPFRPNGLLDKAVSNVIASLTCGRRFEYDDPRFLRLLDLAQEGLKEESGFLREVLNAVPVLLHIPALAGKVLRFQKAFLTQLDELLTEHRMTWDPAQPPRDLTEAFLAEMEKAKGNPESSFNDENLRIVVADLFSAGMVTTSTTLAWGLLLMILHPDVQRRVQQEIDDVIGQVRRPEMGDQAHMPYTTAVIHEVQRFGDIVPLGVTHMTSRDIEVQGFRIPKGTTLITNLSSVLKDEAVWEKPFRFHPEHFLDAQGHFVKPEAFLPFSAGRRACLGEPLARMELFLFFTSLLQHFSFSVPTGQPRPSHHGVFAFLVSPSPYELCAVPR
The test system of data set [5] is Aβ40 in conditioned medium of cells stably expressing Amyloid Precursor Protein (APP). As to the kind of experiment: In vitro BACE cell-based assay (Aβ40 in conditioned medium, sandwich ELISA).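 Further: compounds added as a dilution series, secreted peptide quantified by europium time-resolved fluorescence readout, potency fitted from percent of control versus compound concentration.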 Conditions: Homo sapiens, read-out: HEK cell assay. In general terms: In an ELISA, binding on a coated surface is turned into a signal by an enzyme label.
For data set [6], the target named is Beta Secretase enzyme (BACE) (Homo sapiens, UniProt P56817). In words: In vitro enzymatic BACE FRET (fluorescence resonance energy transfer) assay.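 Further: fluorescence read after 1 h with 50 nM quenched peptide substrate spanning the BACE cleavage site, in pH 4.2 acetate buffer containing 10% DMSO and nonionic detergent.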 The conditions noted are these: read-out: BACE1 FRET assay. Format: biochemical.
Chain of Beta Secretase enzyme (BACE) (P56817 46-501): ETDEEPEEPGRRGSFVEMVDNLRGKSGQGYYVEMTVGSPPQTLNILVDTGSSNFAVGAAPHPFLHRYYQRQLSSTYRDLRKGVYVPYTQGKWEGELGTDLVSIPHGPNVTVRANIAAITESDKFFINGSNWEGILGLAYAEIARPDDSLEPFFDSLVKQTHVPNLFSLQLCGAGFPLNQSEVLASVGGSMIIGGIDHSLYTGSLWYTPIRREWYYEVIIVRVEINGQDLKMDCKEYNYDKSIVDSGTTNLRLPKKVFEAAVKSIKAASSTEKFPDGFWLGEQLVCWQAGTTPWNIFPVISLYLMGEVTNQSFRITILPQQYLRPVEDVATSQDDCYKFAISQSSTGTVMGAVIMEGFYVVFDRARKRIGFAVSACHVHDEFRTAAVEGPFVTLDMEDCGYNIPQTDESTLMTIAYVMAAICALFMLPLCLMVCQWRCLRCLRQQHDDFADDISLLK
[7] abbreviates: 2D6 IC50 (uM), CYP2D6 inhibition.
Setting [8] is: HEK293, HEK cell-based assay IC50.
[9] abbreviates: 2D6 IC50 (uM), CYP enzyme inhibition.
Setting [10] is: HEK293, HEK cell-based assay, IC50's in uM.
Setting [11] is: BACE enzyme assay, IC50's in uM.

Chain of CYP3A4 (CYP3A) (P08684 2-503): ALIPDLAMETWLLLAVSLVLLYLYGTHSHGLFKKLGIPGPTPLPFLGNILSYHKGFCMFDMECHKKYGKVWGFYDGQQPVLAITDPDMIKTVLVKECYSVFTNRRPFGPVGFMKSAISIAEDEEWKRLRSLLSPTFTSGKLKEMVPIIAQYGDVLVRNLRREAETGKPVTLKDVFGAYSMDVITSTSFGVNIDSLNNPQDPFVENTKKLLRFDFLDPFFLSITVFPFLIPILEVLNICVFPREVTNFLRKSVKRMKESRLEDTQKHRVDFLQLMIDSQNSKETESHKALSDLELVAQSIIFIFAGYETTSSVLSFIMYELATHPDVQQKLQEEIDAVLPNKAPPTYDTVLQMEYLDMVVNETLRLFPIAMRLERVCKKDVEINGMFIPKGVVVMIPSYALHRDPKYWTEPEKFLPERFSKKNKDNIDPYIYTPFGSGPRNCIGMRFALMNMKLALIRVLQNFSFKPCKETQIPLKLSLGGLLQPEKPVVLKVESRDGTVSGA

Turning to `COCC(=O)N[C@@H](Cc1cc(F)cc(-c2nccs2)c1)[C@H](O)CN[C@H]1CC2(CCC2)Oc2ncc(CC(C)(C)F)cc21` [Example 724, N-((1S,2R)-3-(((4′S)-6′-(2-fluoro-2-methylpropyl)-3′,4′-dihydrospiro[cyclobutane-1,2′-pyrano[2,3-b]pyridin]-4′-yl)amino)-1-(3-fluoro-5-(1,3-thiazol-2-yl)benzyl)-2-hydroxypropyl)-2-methoxyacetamide], the IC50 was determined as 200 nM in data set [1], 0.9 µM in data set [4] (setting [7]), 0.009 µM in data set [5] (setting [8]) and 0.006 µM in data set [6] (BACE enzyme assay IC50). In addition, the “RLM” value in data set [2] (rat liver microsomes) was 38 µL/min/mg. Further, the “HLM” value in data set [3] (human liver microsomes) came out at 45 µL/min/mg.
For `COCC(=O)N[C@@H](Cc1ccc2c(c1)OCO2)[C@H](O)CN[C@H]1CC2(CCC2)Oc2nc(F)c(CC(C)(C)C)cc21` [compound 485], the IC50 in data set [1] was 100 nM; in data set [4] (2D6 IC50, CYP enzyme inhibition) it was 1.7 µM; in data set [5] (HEK293, Table 2, HEK cells), 0.378 µM; in data set [6] (Table 2), 0.12 µM. The compound also had an RLM in data set [2] (rat liver microsomal data) of 106 µL/min/mg. This compound also registered an HLM in data set [3] (human liver microsomal data) of 43 µL/min/mg.
Consider `CC(C)Cc1cnc2c(c1)[C@@H](NC[C@@H](O)[C@H](Cc1ccc3c(c1)OCO3)NC(=O)[C@H](C)F)CC1(CCC1)O2` [compound 552], for which the IC50 is 200 nM in data set [1]; 2.3 µM in data set [4] (setting [9]); 0.369 µM in data set [5] (HEK293, HEK cells); 0.049 µM in data set [6] (BACE enzyme assay). The “RLM” value in data set [2] (rat liver microsomal data) is 253 µL/min/mg. Also, the “HLM” value in data set [3] (human liver microsomal data) is 73 µL/min/mg.
On to `CCOCC(=O)N[C@@H](Cc1ccc2c(c1)OCO2)[C@H](O)CN[C@H]1CC2(CCC2)Oc2ncc(CC(C)(C)C)cc21` [Example 772, N-((1S,2R)-1-(1,3-benzodioxol-5-ylmethyl)-3-(((4′S)-6′-(2,2-dimethylpropyl)-3′,4′-dihydrospiro[cyclobutane-1,2′-pyrano[2,3-b]pyridin]-4′-yl)amino)-2-hydroxypropyl)-2-ethoxyacetamide], for which the IC50 stood at 200 nM in data set [1], 1.1 µM in data set [4] (setting [9]), 0.042 µM in data set [5] (setting [10]) and 0.021 µM in data set [6] (setting [11]). The “RLM” value in data set [2] (rat liver microsomal data) worked out at 112 µL/min/mg. Further, the “HLM” value in data set [3] (human liver microsomal data) worked out at 28 µL/min/mg.
As to `C#Cc1cccc(C[C@H](NC(=O)[C@@H](C)OC)[C@H](O)CN[C@H]2CC3(CCC3)Oc3ncc(CC(C)C)cc32)c1` [Example 777, (2R)-N-((1S,2R)-1-(3-ethynylbenzyl)-2-hydroxy-3-(((4′S)-6′-(2-methylpropyl)-3′,4′-dihydrospiro[cyclobutane-1,2′-pyrano[2,3-b]pyridin]-4′-yl)amino)propyl)-2-methoxypropanamide], the IC50 amounted to 100 nM in data set [1], 2.1 µM in data set [4] (setting [9]), 0.013 µM in data set [5] (setting [10]) and 0.006 µM in data set [6] (setting [11]). In addition, the “RLM” value in data set [2] (rat liver microsomal data) came out at 38 µL/min/mg. Also, the “HLM” value in data set [3] (human liver microsomal data) is 29 µL/min/mg.
For `CO[C@H](C)C(=O)N[C@@H](Cc1ccc2c(c1)OCO2)[C@H](O)CN[C@@H]1c2cc(CC(C)(C)C)cnc2OC2(CCC2)[C@H]1F` [compound 539], the IC50 in data set [1] stood at 100 nM; in data set [4] (setting [9]), 6.5 µM; in data set [5] (HEK293, HEK cells) it was 0.147 µM; in data set [6] (BACE enzyme assay), 4.77 µM. In data set [2] (rat liver microsomal data), the “RLM” value is 161 µL/min/mg. Besides, the “HLM” value in data set [3] (human liver microsomal data) was found to be 61 µL/min/mg.
For `Cc1ccc(CN2CCO[C@H](C(=O)N[C@@H](Cc3ccc(F)cc3)[C@H](O)CN[C@H]3CC4(CCC4)Oc4ncc(CC(C)(C)C)cc43)C2)cc1` [compound 708], the IC50 in data set [1] turned out to be 200 nM; in data set [4] (setting [7]), 6.8 µM; in data set [5] (setting [8]) it was 0.257 µM; in data set [6] (BACE enzyme assay IC50), 0.154 µM. Also, in data set [2] (rat liver microsomes), the “RLM” value is 278 µL/min/mg. Moreover, the “HLM” value in data set [3] (human liver microsomes) was determined as 310 µL/min/mg.
Take `CC(=S)N[C@@H](Cc1cccc(-c2nccs2)c1)[C@H](O)CN[C@H]1CC2(CCC2)Oc2ncc(CC(C)(C)C)cc21` [compound 793]: the IC50 in data set [1] is 100 nM; in data set [4] (setting [9]) it was 0.4 µM; in data set [5] (setting [10]), 0.067 µM; in data set [6] (setting [11]), 0.03 µM. Moreover, the “RLM” value in data set [2] (rat liver microsomal data) was determined as 60 µL/min/mg. The “HLM” value in data set [3] (human liver microsomal data) is 99 µL/min/mg.

For the origin of these results see US8163909B2, “Substituted hydroxyethyl amine compounds as beta-secretase modulators and methods of use” (Amgen Inc., priority 2007, dated 2012).
